Test results taken from PubChem BioAssay AID651649 (Sanford-Burnham Center for Chemical Genomics, 2012).
Calls of active or inactive are those of the source.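 How the source made its calls: active means IC50 below 20 µM; inactive means the rest.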

Molecular target: CRF-binding protein / CRF-R2 receptor complex (human)
Test: inhibition of CRF-induced CRF-R2.BP calcium signal – cell-based, 384-well, HEK293, calcium flux, powder samples, SAR follow-up (AID 651649)
Details: Fluo4

Compound: Cc1ccc(S(=O)(=O)N(CC(=O)Nc2ccccc2C(=O)O)c2ccc(Cl)cc2)cc1
- IC50: 3220 nM

Compound: NC(=O)c1ccc(NCc2ccco2)c([N+](=O)[O-])c1
- IC50: 1350 nM

Compound: Cc1nc2nc(SCC(=O)c3cccc([N+](=O)[O-])c3)[nH]c2cc1Br
- IC50: inactive

Compound: O=c1oc2ccc3ccccc3c2cc1-c1nnc(-c2ccccc2)o1
- IC50: 636 nM

Compound: Cn1c(COc2ccccc2)nnc1SCC(=O)c1cccc([N+](=O)[O-])c1
- IC50: > 40000 nM (inactive)

Compound: CC(C)(C)c1cc(C(=O)NNC(=O)Nc2cccc(Cl)c2)n(Cc2ccccc2)n1
- IC50: 2540 nM

Compound: Cc1ccccc1Cn1ccc(NC(=O)c2cc3ncc(Br)cn3n2)n1
- IC50: > 40000 nM (inactive)

Compound: COc1cccc(NC(=S)NC(Cc2ccccc2)c2ccccc2)c1 (stereo not drawn)
- IC50: 1040 nM

Compound: COCCNc1nc2c(S(=O)(=O)c3cc(C)ccc3C)nnn2c2ccccc12
- IC50: > 40000 nM (inactive)

Compound: COc1ccc(C(=O)COC(=O)c2cccnc2SC)cc1
- IC50: > 20000 nM (inactive)

Compound: O=C(COc1cc(Cl)ccc1Cl)N1CCNC1=O
- IC50: 5850 nM

Compound: O=C(COc1ccc2ccccc2c1)Nc1cccc(C(=O)Nc2ccccc2C(=O)O)c1
- IC50: 7540 nM

Compound: COc1cccc(C2CC(c3cccs3)=NN2C(=O)c2ccco2)c1O (stereo not drawn)
- IC50: 1540 nM

Compound: CC(C)Cn1c(SCC(=O)N2CCc3ccccc3C2)nc2cc(Cl)ccc2c1=O
- IC50: 946 nM

Compound: C=CCOc1ccc(/C=C2\SC(=S)N(NS(=O)(=O)c3ccccc3)C2=O)cc1
- IC50: 4810 nM

Compound: Cc1ccc(-n2nnnc2SCc2nnc(-c3ccccc3Br)o2)c(C)c1
- IC50: 6040 nM

Compound: COC(=O)c1ccc(CSc2nc3ccccc3c(=O)n2-c2ccccc2)o1
- IC50: 5030 nM

Compound: CC1CC(C)CN(C(=O)CSc2nc(Cc3cccs3)nc3ccccc23)C1 (stereo not drawn)
- IC50: 2380 nM

Compound: CC(=O)NC(Cc1ccc(C)cc1)C(=O)NC1CCN(c2ncccc2[N+](=O)[O-])CC1 (stereo not drawn)
- IC50: 2760 nM

Compound: Cc1ccc(NC(=O)c2ccccc2NS(=O)(=O)c2ccc(F)cc2)cc1S(=O)(=O)N1CCCCC1
- IC50: > 40000 nM (inactive)

Compound: Brc1ccccc1-c1nnc(CSc2nnnn2-c2ccccc2)o1
- IC50: 632 nM

Compound: CCOc1ccc(Cl)cc1S(=O)(=O)n1nnc2ccccc21
- IC50: 1170 nM

Compound: Cc1ccccc1-c1cc2nc(-c3ccc([N+](=O)[O-])cc3)cc(=O)n2[nH]1
- IC50: > 40000 nM (inactive)

Compound: COc1cccc2cc(-c3nnc(-c4ccccc4)o3)c(=O)oc12
- IC50: < 125 nM

Compound: O=C(O)c1ccc(COc2ccccc2C=C2C(=O)c3ccccc3C2=O)cc1
- IC50: 4520 nM

Compound: Cc1ccc2cccc(Oc3ncnc4scc(-c5ccccc5)c34)c2n1
- IC50: 8730 nM

Compound: COc1ccc(Oc2ccc(C(F)(F)F)cc2NC(=O)c2ccc(OC)cc2)cc1
- IC50: > 40000 nM (inactive)

Compound: COc1ccc([N+](=O)[O-])cc1NC(=O)c1ccccc1SC
- IC50: 214 nM
